Values quoted from earlier work as cited in patent publication US20030108586A1, “Method of long-term reversible contraception for animals” (priority 2001, published 2003).
Read-outs that look alike come from different tables or passages of the source.

Compound | adverse effects (bitches) | adverse effects (synthetic progestins)
C[C@@H]1CC2=CC(=O)CC[C@@H]2[C@H]2CC[C@@]3(C)[C@@H](CC[C@]3(C)O)[C@@H]21 [Mibolerone™, Mibolerone] | clitoral hypertrophy | 
CC(=O)O[C@]1(C(C)=O)CC[C@H]2[C@@H]3C=C(C)C4=CC(=O)CC[C@]4(C)[C@H]3CC[C@@]21C [Ovabant™, megestrol acetate] |  | development of mammary tumors as well as endometrial hyperplasia
